Legend:
[1] = target: GDP-bound NRAS wild-type protein (Homo sapiens, UniProt P01111); assay: Binding to NRAS by surface plasmon resonance (SPR), Single Cycle Kinetics; settings: SPR; KD ratio class
[2] = target: GDP-bound HRAS wild-type protein (Homo sapiens, UniProt P01112); assay: Binding to HRAS by surface plasmon resonance (SPR), Single Cycle Kinetics; settings: SPR; KD ratio class
[3] = system: human lung cancer strain NCI-H441; assay: cells; settings: NCI-H441, 96 h, read-out: NCI-H441 IC50 (nM)

Chain of GDP-bound HRAS wild-type protein (P01112 whole entry): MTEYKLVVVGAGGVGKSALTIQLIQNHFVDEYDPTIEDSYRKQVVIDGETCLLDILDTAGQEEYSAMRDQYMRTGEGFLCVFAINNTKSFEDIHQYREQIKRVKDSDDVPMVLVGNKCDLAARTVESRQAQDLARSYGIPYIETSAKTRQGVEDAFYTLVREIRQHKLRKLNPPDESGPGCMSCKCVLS
Chain of GDP-bound NRAS wild-type protein (P01111 whole entry): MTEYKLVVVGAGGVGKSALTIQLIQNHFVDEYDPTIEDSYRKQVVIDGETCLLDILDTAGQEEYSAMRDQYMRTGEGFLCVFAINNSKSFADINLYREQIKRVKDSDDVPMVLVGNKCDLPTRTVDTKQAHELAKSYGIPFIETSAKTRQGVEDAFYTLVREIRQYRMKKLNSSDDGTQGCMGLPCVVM

## CCO[C@@H]1C[C@H]2C(=O)NC3(CCC3)C(=O)N(C)[C@@H](C3CCCC3)C(=O)N(C)[C@H](C(=O)N3CCOCC3)CC(=O)N(C)[C@@H](CC)C(=O)N[C@@H]([C@@H](C)CC)C(=O)N(C)CC(=O)N(C)[C@H]3C[C@@H](C)[C@@H](C)CN(C3=O)[C@@H](Cc3ccc(C(F)(F)F)cc3)C(=O)N(C)CC(=O)N[C@@H](CCc3ccc(C(F)(F)F)c(Cl)c3)C(=O)N2C1 [PP1360]
[1]
  NRAS/KRAS (ratio of KD value for GDP-bound NRAS wild-type protein to KD value for KRAS): A (a compound having 10 or more and less than 20 is denoted as A)
[2]
  HRAS/KRAS (ratio of KD value for GDP-bound HRAS wild-type protein to KD value for KRAS): B (a compound having 3 or more and less than 10 is denoted as B)
[3]
  IC50: 4.9 nM

## CCO[C@@H]1C[C@H]2C(=O)NC3(CCC3)C(=O)N(C)[C@@H](C3CCCC3)C(=O)N(C)[C@H](C(=O)N3CCOCC3)CC(=O)N(C)[C@@H](CC(C)C)C(=O)N[C@@H]([C@@H](C)CC)C(=O)N3CC[C@H]3C(=O)N(C)[C@H]3C[C@@H](C)[C@@H](C)CN(C3=O)[C@@H](Cc3ccc(C(F)(F)F)cc3)C(=O)N(C)CC(=O)N[C@@H](CCc3ccc(C(F)(F)F)c(Cl)c3)C(=O)N2C1 [PP1361]
[1]
  NRAS/KRAS (ratio of KD value for GDP-bound NRAS wild-type protein to KD value for KRAS): A (a compound having 10 or more and less than 20 is denoted as A)
[2]
  HRAS/KRAS (ratio of KD value for GDP-bound HRAS wild-type protein to KD value for KRAS): B (a compound having 3 or more and less than 10 is denoted as B)
[3]
  IC50: 6.2 nM

## CCO[C@@H]1C[C@H]2C(=O)NC3(CCCC3)C(=O)N(C)[C@@H](C3CCCC3)C(=O)N(C)[C@H](C(=O)N(C)C)CC(=O)N(C)[C@@H](CC3CC3)C(=O)N[C@@H]([C@@H](C)CC)C(=O)N(C)CC(=O)N(C)[C@H]3C[C@@H](C)[C@@H](C)CN(C3=O)[C@@H](Cc3ccc(C(F)(F)F)cc3)C(=O)N(C)CC(=O)N[C@@H](CCc3ccc(C(F)(F)F)c(Cl)c3)C(=O)N2C1 [PP1362]
[1]
  NRAS/KRAS (ratio of KD value for GDP-bound NRAS wild-type protein to KD value for KRAS): A (a compound having 10 or more and less than 20 is denoted as A)
[2]
  HRAS/KRAS (ratio of KD value for GDP-bound HRAS wild-type protein to KD value for KRAS): B (a compound having 3 or more and less than 10 is denoted as B)
[3]
  IC50: 3.7 nM

## CC[C@H](C)[C@@H]1NC(=O)[C@H](CC)N(C)C(=O)C[C@@H](C(=O)N(C)C)N(C)C(=O)[C@H](C2CCCC2)N(C)C(=O)C2(CCCC2)NC(=O)[C@@H]2CCCN2C(=O)[C@H](CCc2cc(F)c(C(F)(F)F)c(F)c2)NC(=O)CN(C)C(=O)[C@H](Cc2ccc(C(F)(F)F)cc2)N2C[C@H](C)[C@H](C)C[C@@H](C2=O)N(C)C(=O)CN(C)C1=O [PP1364]
[1]
  NRAS/KRAS (ratio of KD value for GDP-bound NRAS wild-type protein to KD value for KRAS): A (a compound having 10 or more and less than 20 is denoted as A)
[2]
  HRAS/KRAS (ratio of KD value for GDP-bound HRAS wild-type protein to KD value for KRAS): B (a compound having 3 or more and less than 10 is denoted as B)
[3]
  IC50: 7.1 nM

## CC[C@H](C)[C@@H]1NC(=O)[C@H](CC)N(C)C(=O)C[C@@H](C(=O)N2CCOCC2)N(C)C(=O)[C@H](C2CCCC2)N(C)C(=O)C2(CCCC2)NC(=O)[C@@H]2CCCN2C(=O)[C@H](CCc2cc(F)c(C(F)(F)F)c(F)c2)NC(=O)CN(C)C(=O)[C@H](Cc2ccc(C(F)(F)F)cc2)N2C[C@H](C)[C@H](C)C[C@@H](C2=O)N(C)C(=O)CN(C)C1=O [PP1365]
[1]
  NRAS/KRAS (ratio of KD value for GDP-bound NRAS wild-type protein to KD value for KRAS): A (a compound having 10 or more and less than 20 is denoted as A)
[2]
  HRAS/KRAS (ratio of KD value for GDP-bound HRAS wild-type protein to KD value for KRAS): B (a compound having 3 or more and less than 10 is denoted as B)
[3]
  IC50: 4.2 nM

## CC[C@H](C)[C@@H]1NC(=O)[C@H](CC)N(C)C(=O)C[C@@H](C(=O)N2CCOCC2)N(C)C(=O)[C@H](C2CCCC2)N(C)C(=O)C2(CCC2)NC(=O)[C@@H]2CCCN2C(=O)[C@H](CCc2cc(F)c(C(F)(F)F)c(F)c2)NC(=O)CN(C)C(=O)[C@H](Cc2ccc(C(F)(F)F)cc2)N2C[C@H](C)[C@H](C)C[C@@H](C2=O)N(C)C(=O)CN(C)C1=O [PP1366]
[1]
  NRAS/KRAS (ratio of KD value for GDP-bound NRAS wild-type protein to KD value for KRAS): A (a compound having 10 or more and less than 20 is denoted as A)
[2]
  HRAS/KRAS (ratio of KD value for GDP-bound HRAS wild-type protein to KD value for KRAS): B (a compound having 3 or more and less than 10 is denoted as B)
[3]
  IC50: 14 nM

## CC[C@H](C)[C@@H]1NC(=O)[C@H](CC(C)C)N(C)C(=O)C[C@@H](C(=O)N2CCOCC2)N(C)C(=O)[C@H](C2CCCC2)N(C)C(=O)C2(CCC2)NC(=O)[C@@H]2CCCN2C(=O)[C@H](CCc2cc(F)c(C(F)(F)F)c(F)c2)NC(=O)CN(C)C(=O)[C@H](Cc2ccc(C(F)(F)F)cc2)N2C[C@H](C)[C@H](C)C[C@@H](C2=O)N(C)C(=O)[C@@H]2CCN2C1=O [PP1367]
[1]
  NRAS/KRAS (ratio of KD value for GDP-bound NRAS wild-type protein to KD value for KRAS): A (a compound having 10 or more and less than 20 is denoted as A)
[2]
  HRAS/KRAS (ratio of KD value for GDP-bound HRAS wild-type protein to KD value for KRAS): B (a compound having 3 or more and less than 10 is denoted as B)
[3]
  IC50: 29.3 nM

## CC[C@H](C)[C@@H]1NC(=O)[C@H](CC2CC2)N(C)C(=O)C[C@@H](C(=O)N(C)C)N(C)C(=O)[C@H](C2CCCC2)N(C)C(=O)C2(CCCC2)NC(=O)[C@@H]2CCCN2C(=O)[C@H](CCc2cc(F)c(C(F)(F)F)c(F)c2)NC(=O)CN(C)C(=O)[C@H](Cc2ccc(C(F)(F)F)cc2)N2C[C@H](C)[C@H](C)C[C@@H](C2=O)N(C)C(=O)CN(C)C1=O [PP1368]
[1]
  NRAS/KRAS (ratio of KD value for GDP-bound NRAS wild-type protein to KD value for KRAS): A (a compound having 10 or more and less than 20 is denoted as A)
[2]
  HRAS/KRAS (ratio of KD value for GDP-bound HRAS wild-type protein to KD value for KRAS): B (a compound having 3 or more and less than 10 is denoted as B)
[3]
  IC50: 2.9 nM

## CCO[C@@H]1C[C@H]2C(=O)NC3(CCC3)C(=O)N(C)[C@@H](C3CCCC3)C(=O)N(C)[C@H](C(=O)N3CCOCC3)CC(=O)N(C)[C@@H](CC)C(=O)N[C@@H]([C@@H](C)CC)C(=O)N3CC[C@H]3C(=O)N(C)[C@H]3CC[C@@H](C)CN(C3=O)[C@@H](Cc3ccc(C(F)(F)F)cc3)C(=O)N(C)CC(=O)N[C@@H](CCc3cc(F)c(C(F)(F)F)c(F)c3)C(=O)N2C1 [PP1369]
[1]
  NRAS/KRAS (ratio of KD value for GDP-bound NRAS wild-type protein to KD value for KRAS): B (a compound having 3 or more and less than 10 is denoted as B)
[2]
  HRAS/KRAS (ratio of KD value for GDP-bound HRAS wild-type protein to KD value for KRAS): B (a compound having 3 or more and less than 10 is denoted as B)
[3]
  IC50: 13.4 nM

## CCO[C@@H]1C[C@H]2C(=O)NC3(CCCC3)C(=O)N(C)[C@@H](C3CCCC3)C(=O)N(C)[C@H](C(=O)N(C)C)CC(=O)N(C)[C@@H](CC)C(=O)N[C@@H]([C@@H](C)CC)C(=O)N(C)CC(=O)N(C)[C@H]3CC[C@@H](C)CN(C3=O)[C@@H](Cc3ccc(C(F)(F)F)cc3)C(=O)N(C)CC(=O)N[C@@H](CCc3cc(F)c(C(F)(F)F)c(F)c3)C(=O)N2C1 [PP1370]
[1]
  NRAS/KRAS (ratio of KD value for GDP-bound NRAS wild-type protein to KD value for KRAS): C (A compound having a KD ratio of 0.1 or more and less than 3 is denoted as C)
[2]
  HRAS/KRAS (ratio of KD value for GDP-bound HRAS wild-type protein to KD value for KRAS): C (A compound having a KD ratio of 0.1 or more and less than 3 is denoted as C)
[3]
  IC50: 2.3 nM

## CCO[C@@H]1C[C@H]2C(=O)NC3(CCCC3)C(=O)N(C)[C@@H](C3CCCC3)C(=O)N(C)[C@H](C(=O)N3CCOCC3)CC(=O)N(C)[C@@H](CC)C(=O)N[C@@H]([C@@H](C)CC)C(=O)N(C)CC(=O)N(C)[C@H]3CC[C@@H](C)CN(C3=O)[C@@H](Cc3ccc(C(F)(F)F)cc3)C(=O)N(C)CC(=O)N[C@@H](CCc3cc(F)c(C(F)(F)F)c(F)c3)C(=O)N2C1 [PP1371]
[1]
  NRAS/KRAS (ratio of KD value for GDP-bound NRAS wild-type protein to KD value for KRAS): A (a compound having 10 or more and less than 20 is denoted as A)
[2]
  HRAS/KRAS (ratio of KD value for GDP-bound HRAS wild-type protein to KD value for KRAS): B (a compound having 3 or more and less than 10 is denoted as B)
[3]
  IC50: 5.1 nM

## CCO[C@@H]1C[C@H]2C(=O)NC3(CCC3)C(=O)N(C)[C@@H](C3CCCC3)C(=O)N(C)[C@H](C(=O)N3CCOCC3)CC(=O)N(C)[C@@H](CC)C(=O)N[C@@H]([C@@H](C)CC)C(=O)N(C)CC(=O)N(C)[C@H]3CC[C@@H](C)CN(C3=O)[C@@H](Cc3ccc(C(F)(F)F)cc3)C(=O)N(C)CC(=O)N[C@@H](CCc3cc(F)c(C(F)(F)F)c(F)c3)C(=O)N2C1 [PP1372]
[1]
  NRAS/KRAS (ratio of KD value for GDP-bound NRAS wild-type protein to KD value for KRAS): B (a compound having 3 or more and less than 10 is denoted as B)
[2]
  HRAS/KRAS (ratio of KD value for GDP-bound HRAS wild-type protein to KD value for KRAS): B (a compound having 3 or more and less than 10 is denoted as B)
[3]
  IC50: 5 nM

## CCO[C@@H]1C[C@H]2C(=O)NC3(CCC3)C(=O)N(C)[C@@H](C3CCCC3)C(=O)N(C)[C@H](C(=O)N3CCOCC3)CC(=O)N(C)[C@@H](CC(C)C)C(=O)N[C@@H]([C@@H](C)CC)C(=O)N3CC[C@H]3C(=O)N(C)[C@H]3CC[C@@H](C)CN(C3=O)[C@@H](Cc3ccc(C(F)(F)F)cc3)C(=O)N(C)CC(=O)N[C@@H](CCc3cc(F)c(C(F)(F)F)c(F)c3)C(=O)N2C1 [PP1373]
[1]
  NRAS/KRAS (ratio of KD value for GDP-bound NRAS wild-type protein to KD value for KRAS): B (a compound having 3 or more and less than 10 is denoted as B)
[2]
  HRAS/KRAS (ratio of KD value for GDP-bound HRAS wild-type protein to KD value for KRAS): B (a compound having 3 or more and less than 10 is denoted as B)
[3]
  IC50: 12.2 nM

## CCO[C@@H]1C[C@H]2C(=O)NC3(CCC3)C(=O)N(C)[C@@H](C3CCCC3)C(=O)N(C)[C@H](C(=O)N3CCOCC3)CC(=O)N(C)[C@@H](CC)C(=O)N[C@@H]([C@@H](C)CC)C(=O)N3CC[C@H]3C(=O)N(C)[C@H]3CC[C@@H](C)CN(C3=O)[C@@H](Cc3ccc(C(F)(F)F)cc3)C(=O)N(C)CC(=O)N[C@@H](CCc3ccc(C(F)(F)F)c(Cl)c3)C(=O)N2C1 [PP1375]
[1]
  NRAS/KRAS (ratio of KD value for GDP-bound NRAS wild-type protein to KD value for KRAS): B (a compound having 3 or more and less than 10 is denoted as B)
[2]
  HRAS/KRAS (ratio of KD value for GDP-bound HRAS wild-type protein to KD value for KRAS): B (a compound having 3 or more and less than 10 is denoted as B)
[3]
  IC50: 11.5 nM

— patent US20250230193A1, “CYCLIC COMPOUND HAVING SELECTIVE KRAS INHIBITORY EFFECT ON HRAS AND NRAS” (CHUGAI SEIYAKU KABUSHIKI KAISHA, priority 2022, published 2025)
